One block for each molecule: values may come before it.
Tests used:
[1] = system: KG1a; test: Lymphocyte adherence assay on KG1a cytocentrifuge preparations (Examples 2-6); assay type: cell-based, human; details: for return of binding activity following desialylation: KG1a after neuraminidase
[2] = system: KG1a cells; test: Stamper-Woodruff lymphocyte adherence assay on KG1a cytospins (Example 9); assay type: cell-based, human; details: for % Control Adhesion: tunicamycin 15 μg/ml, deoxymannojirimycin 0.4 mg/ml, swainsonine 40 μg/ml; for L-selectin ligand (HCELL) activity of KG1a / lymphocyte adherence (result in words): Stamper-Woodruff assay; for L-selectin ligand Activity of KG1a Cells Following Protease or Phospholipase C Treatment, % Control Binding: enzymatic treatment of cells in suspension before cytocentrifugation
[3] = system: CD43; test: Flow cytometry of sialic acid-dependent L60 epitope of CD43 on KG1a after neuraminidase; assay type: cell-based, human; details: KG1a cultured with the agent
[4] = system: LN HEV; test: Lymphocyte adherence to frozen rat lymph node sections (LN HEV, positive control); assay type: cell-based
Description: Lymphocyte Adherence Assay. […] Cytocentrifuge preparations of KG1a or other cell lines were made on a Cytospin 3 Cytocentrifuge (Shandon Lipshaw, Pittsburgh, Pa.). Frozen rat LN sections […] thick were mounted on slides, and lymphocyte binding to LN HEV served as a positive control in all experiments.
Lymphocyte suspensions ([…]) were overlaid onto cytocentrifuge or LN sections in duplicate and placed on a rotating platform (80 rpm) at 4° C. for 30 minutes. Slides were then rinsed in cold PBS to remove non-adherent lymphocytes, fixed in 3% glutaraldehyde, and stained with methyl green-thionin. Slides were examined under the light microscope for adherence of lymphocytes to KG1a or LN HEV.

[5] = 20 hr culture, no neuraminidase pretreatment, tunicamycin 15 ug/ml, cycloheximide 1.25 ug/ml
[6] = after neuraminidase, 24 hr culture with chlorate 10 mM, 20 hr culture with tunicamycin 15 ug/ml or cycloheximide 1.25 ug/ml
[7] = 24 h culture with inhibitor after 1 h neuraminidase (0.1 U/ml)
[8] = LYMPHOCYTE TREATMENT, 1 mM EDTA, 10 mM mannose-6-P, 10 mg/ml PPME, 5 mg/ml fucoidin, 10 ng/ml PMA

Molecule: C[C@@H]1C[C@@H]([C@H](O)CC2CC(=O)NC(=O)C2)C(=O)[C@@H](C)C1 [Cycloheximide]
- Lymphocyte Adherence to KG1a, Mean of Binding (% of untreated control) [1, 5]: 91.8 % of untreated control
- return of binding activity following desialylation [1]: blocked
- Lymphocyte Adherence to KG1a, Mean of Binding (% of untreated control) [1, 6]: 0.5 % of untreated control
- Mean % Control Binding ([2]; 20 hour culture with cycloheximide 1.25 μg/ml, no neuraminidase or bromelain digestion): 91.8 % Control Binding
- Mean % Control Binding ([2]; after bromelain, 20 hour culture with cycloheximide 1.25 μg/ml): 0.6 % Control Binding
- Mean % Control Binding ([2]; after neuraminidase, 20 hour culture with cycloheximide 1.25 μg/ml): 0.5 % Control Binding

Molecule: OC[C@H]1NC[C@@H](O)[C@@H](O)[C@@H]1O [Deoxymannojirimycin]
- return of the L60 epitope of CD43 after neuraminidase [3]: not inhibited
- % Control Adhesion [2, 7]: 22.5 % Control Adhesion
- L-selectin ligand (HCELL) activity of KG1a / lymphocyte adherence (result in words) [2]: markedly diminished
- % Control Adhesion ([2]; inhibitor alone, 24 h): 107.5 % Control Adhesion

- lymphocyte binding to KG1a (result in words) [1]: inhibited
- lymphocyte binding to LN control sections / LN HEV (result in words) [4]: inhibited
Molecule: O=C[C@@H](O)[C@@H](O)[C@H](O)[C@H](O)COP(=O)(O)O [Mannose-6-P, D-mannose-6-phosphate]
- Lymphocyte Adherence to KG1a, Mean of Binding (% of untreated control) [1, 8]: 5.7 % of Untreated Control

Molecule: O=S(=O)(F)Cc1ccccc1 [PMSF]
- lymphocyte binding to KG1a (result in words) [1]: prevented chymotrypsin effects

Molecule: O[C@H]1[C@H]2[C@H](O)CCCN2C[C@H]1O [Swainsonine]
- return of the L60 epitope of CD43 after neuraminidase [3]: not inhibited
- % Control Adhesion [2, 7]: 26.6 % Control Adhesion
- L-selectin ligand (HCELL) activity of KG1a / lymphocyte adherence (result in words) [2]: markedly diminished
- % Control Adhesion ([2]; inhibitor alone, 24 h): 95.5 % Control Adhesion

Molecule: CC(C)C[C@H](NC(=O)[C@@H](NC(=O)N[C@@H](Cc1ccccc1)C(=O)O)[C@@H]1CCN=C(N)N1)C(=O)N[C@H](C=O)Cc1ccccc1 [chymostatin]
- lymphocyte binding to KG1a (result in words) [1]: prevented chymotrypsin effects

- lymphocyte binding to KG1a (result in words) [1]: abrogated binding
- Lymphocyte Adherence to KG1a, Mean of Binding (% of untreated control) ([1]; KG1A TREATMENT): 3.8 % of Untreated Control
- lymphocyte binding to LN control sections / LN HEV (result in words) [4]: abrogated binding
Molecule: Bromelain
- L-selectin ligand (HCELL) activity of KG1a / lymphocyte adherence (result in words) [2]: completely abrogates
- Mean % Control Binding ([2]; digestion then culture without inhibitor (neuraminidase 24 hour, bromelain 20 hour)): 95.2 % Control Binding
- L-selectin ligand Activity of KG1a Cells Following Protease or Phospholipase C Treatment, % Control Binding [2]: 3.8 % Control Binding
- Mean % Control Binding ([2]; t = 0, no culture): 3.8 % Control Binding

- lymphocyte binding to KG1a (result in words) [1]: abrogated binding
- Lymphocyte Adherence to KG1a, Mean of Binding (% of untreated control) ([1]; KG1A TREATMENT): 6.7 % of Untreated Control
- lymphocyte binding to LN control sections / LN HEV (result in words) [4]: abrogated binding
Molecule: Chymotrypsin
- L-selectin ligand (HCELL) activity of KG1a / lymphocyte adherence (result in words) [2]: completely abrogates
- L-selectin ligand Activity of KG1a Cells Following Protease or Phospholipase C Treatment, % Control Binding [2]: 6.7 % Control Binding

- lymphocyte binding to KG1a (result in words) [1]: inhibited
- Lymphocyte Adherence to KG1a, Mean of Binding (% of untreated control) [1, 8]: 1.4 % of Untreated Control
- lymphocyte binding to LN control sections / LN HEV (result in words) [4]: inhibited
Molecule: Fucoidin

Molecule: Human Neutrophil Elastase: protease
- L-selectin ligand (HCELL) activity of KG1a / lymphocyte adherence (result in words) [2]: partially affects activity
- L-selectin ligand Activity of KG1a Cells Following Protease or Phospholipase C Treatment, % Control Binding [2]: 25.4 % Control Binding

Molecule: Tunicamycin
- return of the L60 epitope of CD43 after neuraminidase [3]: not inhibited
- Lymphocyte Adherence to KG1a, Mean of Binding (% of untreated control) [1, 5]: 106.2 % of untreated control
- return of binding activity following desialylation [1]: blocked
- Lymphocyte Adherence to KG1a, Mean of Binding (% of untreated control) [1, 6]: 0.4 % of untreated control
- % Control Adhesion [2, 7]: 1.0 % Control Adhesion
- L-selectin ligand (HCELL) activity of KG1a / lymphocyte adherence (result in words) [2]: completely prevented ligand re-expression
- % Control Adhesion ([2]; inhibitor alone, 24 h): 96.5 % Control Adhesion
